Literature values in patent publication US20240009325A1 (PriZm, LLC, priority 2022, published 2024).
Entries after “also recorded” stand apart in the source; their conditions may differ.

Assays:
[1] = test system: MCT8 deficient children; details: cited from earlier work; for high blood / serum T3 / neuropsychomotor deficit / neurological symptoms: MCT8 deficient patients
[2] = test system: animal models; details: mice not neurologically affected; cited from earlier work
[3] = test system: mice deficient in MCT8; details: cited from earlier work; for cell entry in absence of MCT8: Mct8 deficient mice
[4] = test system: D1; details: cited from earlier work

SMILES | hypermetabolism and nutrition ([1]; 4 MCT8 deficient children, compassionate basis) | high blood / serum T3 [1] | neuropsychomotor deficit / neurological symptoms [1] | peripheral and central abnormalities [2] | suppressive effect on TSH ([3]; MCT8 deficient vs normal mice) | cell entry in absence of MCT8 [3] | T4 serum levels ([1]; clinical trial, Groeneweg et al. 2019) | D1 [4]
O=C(O)CCc1cc(I)c(Oc2ccc(O)cc2)c(I)c1 [DITPA, 3,5-diiodothyropropionic acid] | ameliorating | reduction and normalization; also recorded: reduced | not the neuropsychomotor deficit; also recorded: no evidence for improvement | able to restore some | equal suppressive effect | enter cells independent of MCT8 | – | –
Cc1cc(OCC(=O)O)cc(C)c1Cc1ccc(O)c(C(C)C)c1 [Sobetirome] | – | – | – | able to restore some | – | – | – | –
O=C(O)Cc1cc(I)c(Oc2cc(I)c(O)c(I)c2)c(I)c1 [TETRAC] | – | – | – | able to restore some | – | – | – | –
O=C(O)Cc1cc(I)c(Oc2ccc(O)c(I)c2)c(I)c1 [TRIAC, triiodothyroacetic acid] | – | reduced | no evidence for improvement | able to restore some | – | enter cells independent of MCT8 | significantly reduce | increases
